Assay results published in ChEMBL document CHEMBL5338795, “Novel Triazoles with Potent and Broad-Spectrum Antifungal Activity In Vitro and In Vivo” (J Med Chem, 2023).
≈ marks a conversion by molar mass, not a printed value. Calls of active or inactive are those of the source. The calls are words filed in the database; no cut-off is given here.

Columns and labels:
Candida albicans [1] = assay: Antifungal activity against Candida albicans SC5314 assessed as reduction in fungal growth incubated for 24 hrs by CLSI based microdilution analysis; assay type: functional
[2] = test system: Meyerozyma guilliermondii; assay: Antifungal activity against Meyerozyma guilliermondii ATCC 6260 assessed as reduction in fungal growth incubated for 24 hrs by CLSI based microdilution analysis; assay type: functional
Candida parapsilosis = assay: Antifungal activity against Candida parapsilosis ATCC 22019 assessed as reduction in fungal growth incubated for 24 hrs by CLSI based microdilution analysis; assay type: functional; conditions: Lodderomyces parapsilosis
Candida tropicalis = assay: Antifungal activity against Candida tropicalis ATCC 750 assessed as reduction in fungal growth incubated for 24 hrs by CLSI based microdilution analysis; assay type: functional
Nakaseomyces glabratus = assay: Antifungal activity against Candida glabrata ATCC 15126 assessed as reduction in fungal growth incubated for 24 hrs by CLSI based microdilution analysis; assay type: functional
Cryptococcus neoformans = assay: Antifungal activity against Cryptococcus neoformans CGMCC3 1563 assessed as reduction in fungal growth incubated for 72 hrs by CLSI based microdilution analysis; assay type: functional
Aspergillus fumigatus = assay: Antifungal activity against Aspergillus fumigatus CGMCC3 7795 assessed as reduction in fungal growth incubated for 48 hrs by CLSI based microdilution analysis; assay type: functional
Candida albicans [3] = assay: Antifungal activity against fluconazole-resistant Candida albicans 102 assessed as inhibition of fungal growth measured for 24 hrs by CLSI based microdilution analysis; assay type: functional
Candida albicans [4] = assay: Antifungal activity against fluconazole-resistant Candida albicans 13 assessed as inhibition of fungal growth measured for 24 hrs by CLSI based microdilution analysis; assay type: functional
Candida albicans [5] = assay: Antifungal activity against fluconazole-resistant Candida albicans 15 assessed as inhibition of fungal growth measured for 24 hrs by CLSI based microdilution analysis; assay type: functional
Candida albicans [6] = assay: Antifungal activity against fluconazole-resistant Candida albicans 901 assessed as inhibition of fungal growth measured for 24 hrs by CLSI based microdilution analysis; assay type: functional
Candida albicans [7] = assay: Antifungal activity against fluconazole-resistant Candida albicans 24D assessed as inhibition of fungal growth measured for 24 hrs by CLSI based microdilution analysis; assay type: functional
Candida albicans [8] = assay: Antifungal activity against fluconazole-resistant Candida albicans 112869 assessed as inhibition of fungal growth measured for 24 hrs by CLSI based microdilution analysis; assay type: functional
Candida albicans [9] = assay: In-vivo antifungal activity against Candida albicans […] infected in ICR mouse model assessed as median survival time at 1 mg/kg, ip administered once daily pretreated for 24 hrs followed by infection and measured every 2 hrs for 5 days; assay type: functional; conditions: time 144 hrs
Candida albicans [10] = assay: In-vivo antifungal activity against multidrug-resistant Candida albicans 24D infected in ICR mouse model assessed as median survival time at 1 mg/kg, ip administered once daily pretreated for 24 hrs followed by infection and measured every 2 hrs for 5 days; assay type: functional; conditions: time 144 hrs
Candida albicans [11] = assay: In-vivo antifungal activity against Candida albicans […] infected in skin infected ICR mouse model assessed as wound healing at 1 mg/kg, ip pretreated for 24 hrs followed by infection and measured for 5 days; assay type: functional, organism-based; conditions: time 144.0 hrs
Candida albicans [12] = assay: In-vivo antifungal activity against Candida albicans […] infected in skin infected ICR mouse model assessed as reduction in fungal burden in skin at 1 mg/kg, ip pretreated for 24 hrs followed by infection and measured for 5 days by Periodic acid-Schiff staining based analysis; assay type: functional, organism-based; conditions: time 144.0 hrs
Candida albicans [13] = assay: Potency index, ratio of fluconazole MIC80 to test compound MIC for antifungal activity against Candida albicans SC5314 assessed as reduction in fungal growth incubated for 24 hrs by CLSI based microdilution analysis; assay type: functional
Candida albicans [14] = assay: Potency index, ratio of voriconazole MIC80 to test compound MIC for antifungal activity against Candida albicans SC5314 assessed as reduction in fungal growth incubated for 24 hrs by CLSI based microdilution analysis; assay type: functional
Candida albicans [15] = assay: Potency index, ratio of itraconazole MIC80 to test compound MIC for antifungal activity against Candida albicans SC5314 assessed as reduction in fungal growth incubated for 24 hrs by CLSI based microdilution analysis; assay type: functional
[16] = Hemolytic activity in mouse RBC assessed as hemolysis at 100 microg/ml incubated for 60 mins relative to control; assay type: toxicity, cell-based, Erythrocyte; conditions: red blood cells (erythrocytes), at 100 µg/mL, read-out: Activity
Cytochrome P450 3A4 = Cytochrome P450 3A4 (Homo sapiens, UniProt P08684); assay: Inhibition of CYP3A4 in human liver microsomes using testosterone as substrate preincubated for 5 mins followed by NADPH addition and measured after 5 mins by LC-MS/MS analysis; assay type: ADME, Microsome
Sequence of Cytochrome P450 3A4 (P08684 whole entry): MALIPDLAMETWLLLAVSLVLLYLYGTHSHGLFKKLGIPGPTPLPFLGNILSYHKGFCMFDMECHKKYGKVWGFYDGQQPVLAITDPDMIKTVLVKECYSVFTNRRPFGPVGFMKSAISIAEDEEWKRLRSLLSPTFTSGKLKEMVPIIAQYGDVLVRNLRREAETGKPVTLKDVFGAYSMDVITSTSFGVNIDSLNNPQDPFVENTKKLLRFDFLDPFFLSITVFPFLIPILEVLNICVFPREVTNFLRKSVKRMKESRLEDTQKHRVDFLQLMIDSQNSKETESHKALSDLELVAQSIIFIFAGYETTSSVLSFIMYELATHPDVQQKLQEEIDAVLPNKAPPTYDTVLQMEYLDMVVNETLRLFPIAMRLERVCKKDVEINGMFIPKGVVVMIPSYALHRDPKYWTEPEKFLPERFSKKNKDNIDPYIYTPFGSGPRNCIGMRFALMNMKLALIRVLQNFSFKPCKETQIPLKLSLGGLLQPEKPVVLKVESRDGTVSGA

SMILES	MIC80 (Candida albicans [1]) [µg/mL]	MIC80 [2] [µg/mL]	MIC80 (Candida parapsilosis) [µg/mL]	MIC80 (Candida tropicalis) [µg/mL]	MIC80 (Nakaseomyces glabratus) [µg/mL]	MIC80 (Cryptococcus neoformans) [µg/mL]	MIC80 (Aspergillus fumigatus) [µg/mL]	MIC80 (Candida albicans [3]) [µg/mL]	MIC80 (Candida albicans [4]) [µg/mL]	MIC80 (Candida albicans [5]) [µg/mL]	MIC80 (Candida albicans [6]) [µg/mL]	MIC80 (Candida albicans [7]) [µg/mL]	MIC80 (Candida albicans [8]) [µg/mL]	hemolysis at 1 h, 100 microg/ml [16] [%]	other results
C[C@@H](c1ncncc1F)[C@](O)(Cn1cncn1)c1ccc(F)cc1F [VORICONAZOLE]	0.062 (≈ 0.177 µM)	0.062 (≈ 0.177 µM)	0.062 (≈ 0.177 µM)	0.312 (≈ 0.893 µM)	0.312 (≈ 0.893 µM)	0.031 (≈ 0.0887 µM)	0.312 (≈ 0.893 µM)	> 100	25 (≈ 71.6 µM)	0.625 (≈ 1.79 µM)	> 100	> 100	> 100	–	Time (Candida albicans [9]): 7 days; Time (Candida albicans [10]): 9 days
N#C/C(=C1/SC[C@@H](c2ccc(Cl)cc2Cl)S1)n1ccnc1	–	–	–	–	–	–	–	–	–	–	–	–	–	–	Activity (Candida albicans [11]): inactive; Activity (Candida albicans [12]): Active
OC(CN1CCN(CCn2ccc3cc(Br)ccc32)CC1)(Cn1cncn1)c1ccc(F)cc1F (stereo not given)	0.015 (≈ 0.0275 µM)	0.015 (≈ 0.0275 µM)	0.015 (≈ 0.0275 µM)	0.156 (≈ 0.286 µM)	0.156 (≈ 0.286 µM)	0.015 (≈ 0.0275 µM)	0.625 (≈ 1.15 µM)	0.015 (≈ 0.0275 µM)	0.015 (≈ 0.0275 µM)	0.312 (≈ 0.572 µM)	1.25 (≈ 2.29 µM)	0.031 (≈ 0.0568 µM)	0.062 (≈ 0.114 µM)	1.2	Ratio (Candida albicans [13]): 32; Ratio (Candida albicans [14]): 4; Ratio (Candida albicans [15]): 4
OC(CN1CCN(CCCn2ccc3cc(Br)ccc32)CC1)(Cn1cncn1)c1ccc(F)cc1F (stereo not given)	0.031 (≈ 0.0554 µM)	0.015 (≈ 0.0268 µM)	0.062 (≈ 0.111 µM)	0.312 (≈ 0.558 µM)	0.312 (≈ 0.558 µM)	0.031 (≈ 0.0554 µM)	0.625 (≈ 1.12 µM)	0.062 (≈ 0.111 µM)	0.031 (≈ 0.0554 µM)	1.25 (≈ 2.23 µM)	1.25 (≈ 2.23 µM)	0.062 (≈ 0.111 µM)	0.125 (≈ 0.223 µM)	5.9	IC50 (Cytochrome P450 3A4): 130 nM
CCC(C)n1ncn(-c2ccc(N3CCN(c4ccc(OCC5COC(Cn6cncn6)(c6ccc(Cl)cc6Cl)O5)cc4)CC3)cc2)c1=O (stereo not given) [ITRACONAZOLE]	0.062 (≈ 0.0879 µM)	0.25 (≈ 0.354 µM)	0.25 (≈ 0.354 µM)	0.625 (≈ 0.886 µM)	0.625 (≈ 0.886 µM)	0.062 (≈ 0.0879 µM)	0.312 (≈ 0.442 µM)	> 100	> 100	> 100	> 100	> 100	> 100	–	–
OC(CN1CCN(CCCn2ccc3ccc(Br)cc32)CC1)(Cn1cncn1)c1ccc(F)cc1F (stereo not given)	0.062 (≈ 0.111 µM)	0.031 (≈ 0.0554 µM)	0.062 (≈ 0.111 µM)	0.312 (≈ 0.558 µM)	0.312 (≈ 0.558 µM)	0.031 (≈ 0.0554 µM)	1.25 (≈ 2.23 µM)	0.125 (≈ 0.223 µM)	0.031 (≈ 0.0554 µM)	2.5 (≈ 4.47 µM)	2.5 (≈ 4.47 µM)	0.125 (≈ 0.223 µM)	0.5 (≈ 0.894 µM)	–	–
